Source: PMC9396645 (Frontiers in Chemistry, 2022)

How the values were obtained:
C4-2 cells = assay: Internalization efficiency / specific cell uptake in C4-2 cells; type: cell-based, human; details: ^68Ga-labeled compounds 30 nM, 45 min, 37°C, specificity by 2-PMPA 500 μM, mean ± SD (n = 3)
Description: The specific internalization ratio was determinated in 24-well plates. The plates were previously coated with 0.1% poly-L-lysine in PBS for 20 min and washed with PBS once. C4-2 cells (10^5 cells per analysis) were added to each well and equilibrated overnight. The cells were incubated for 45 min with 250 µL of a 30 nM solution of the ^68Ga-labeled compounds either in a water bath at 37°C or on ice. The PSMA-receptor-blocking agent 2-(phosphonomethyl)pentanedioic acid (2-PMPA; 500 μM; Axxora) was used to verify the specificity of the cellular uptake of the novel compounds. The cells were washed thrice (using 1 ml of ice-cold PBS), followed by an incubation with 0.5 ml of a glycine solution (50 mM in HCl at a pH of 2.8) for 5 min, washed once with 1 ml of ice-cold PBS, and finally lysed with 0.5 ml of 0.3 M NaOH. The lysate was collected, and the radioactivity was measured in a gamma-counter. Triplicate measurements were performed for all experiments.

[1] = system: C4-2 tumor bearing BALB/c nu/nu mice; assay: Small-animal PET imaging in C4-2 tumor bearing mice; type: in vivo, mouse; details: mean SUV from PET, 2 h p.i.
Source text: (§1) Athymic male nude mice (BALB/c nu/nu) were purchased from Charles River at 4‒5 weeks of age (19–23 g). The mice were kept under pathogen-free conditions for 1 week prior to the study. The mice had free access to water and food and were housed with a 12-h/12-h light/dark cycle. The xenografts required for positron emission tomography (PET) imaging and biodistribution studies were obtained by inoculation of 5 × 10^7 C4-2 cells in 50% Matrigel in Opti-MEM I (1 ×) medium. For this purpose, the mice were anesthetized with 2% sevoflurane, and inoculation was performed subcutaneously on the right trunk. When the size of the tumor was approximately 1 cm^3, the studies were performed.
For small-animal PET imaging, the different ^68Ga-labeled PSMA ligands (0.5 nmol, 20 MBq in approximately 100 µL 0.9% saline) were injected into C4-2 tumor bearing mice. The dynamic PET was recorded in a small animal PET scanner (Siemens Inveon D-PET). The standardized uptake values (SUVs) were obtained from conventional (non-dynamic) PET images. The formula for the SUV was SUV=activity in ROI (Bq/ml) × animal weight (g)/injected dose(Bq)
Manual delineation of the respective appropriate whole organ (heart, kidneys, bladder, tumor, with an approximate volume of 100–500 µL) yielded the volumes of interest (VOIs). For this purpose, whole organs or parts of the organ/tissue (liver and muscle) were used. The images were reconstructed based on the procedure: OSEM 3D/SP MAP with 16 subsets, two iterations, and an image x-y size: 256, image z size: 161. The data were not modified with a post-processing filter. Analysis of the images and time-activity curves (TACs) was conducted on the Inveon™ Acquisition Workplace (IAW) from Siemens IRW 4.1. […] […] The mean SUVs were plotted over time in order to compare the different radiotracers.

prostate cancer patients = assay: PSMA-PET/CT of prostate cancer patients; type: in vivo, human; details: patient PET/CT, 20 nmol
Description: Diagnostic PSMA-PET/computed tomography (CT) examinations were performed 1 and 3 h after antecubital injection of 339 MBq/20 nmol ^68Ga-CA028 or 295 MBq/20 nmol ^68Ga-CA030 per patient, respectively. The method for assessing the biodistribution was performed as previously described by Afshar-Oromieh et al. ([Afshar-Oromieh et al., 2015b]). Applying the clinical standard software Syngo (Siemens), which was used to define the VOIs in the PET images, the activity distributions of the source organs was determined. This reference ([Afshar-Oromieh et al., 2015b]) was also used as a standard of reference for ^68Ga-PSMA-617 (Table 3).

[2] = system: C4-2 tumor bearing BALB/c nu/nu mice; assay: Biodistribution (organ distribution) in C4-2 tumor-bearing mice; type: in vivo, mouse; details: tumor bearing mice, n = 3
Source text: as §1
Based on the results of the PET imaging, ^68Ga-CA028 and ^68Ga-CA030, the most promising compounds, were chosen for biodistribution studies in C4-2 tumor-bearing mice. The labeled compound (0.05 nmol, 20 MBq) was administered to the mice via tail vein injection. Animals were sacrificed and organs were harvested at the following time points: 20 min, 1, 2, and 4 h p.i. The organs were dissected and weighed, the activity was measured with a γ-counter, and the % ID/g was calculated.

[3] = Serum stability (radio-HPLC and radio-ITLC); type: in vitro ADME; details: ^177Lu-labeled; for release of ^177Lu in human serum: 37°C, radio-ITLC
Description: After radiolabeling of the compounds, serum stability was examined by HPLC and ITLC (instant thin-layer chromatography). 50 µL (20 MBq) of the ^177Lu-labeled ligands was added to 200 µL human serum (Sigma-Aldrich) and incubated at 37°C. At different time points (0, 2, 24, 48, and 72 h) 0.5 µL was applied onto iTLC-SG-glass microfiber chromatography paper strips (5 × 0.5 cm; Agilent Technologies) at a distance of 1 cm from the bottom. The strip was placed upright into a vial containing 120 µL of sodium citrate buffer (0.5 M, pH = 5.0). The buffer front was allowed to rise to the top. Subsequently, each strip was cut in eight equally sized pieces that were subsequently measured in a gamma-counter. For HPLC analysis, an equal volume of ACN was added to the samples; under these conditions, the serum proteins precipitated. The samples were centrifuged for 10 min at 12,000 × g. Following the separation of the pellet and the supernatant, their relative activity (%) was determined. An aliquot of the supernatant was analyzed by radio-HPLC (0–100% ACN in 5 min, Monolith column, Merck), with a flow rate of 2 mL/min.

O=C([O-])CN1CCN(CC(=O)[O-])CCN(CC(=O)O)C(Cc2ccc(NC(=S)NCC3CCC(C(=O)NC(Cc4ccc5ccccc5c4)C(=O)NCCCCC(NC(=O)NC(CCC(=O)O)C(=O)O)C(=O)O)CC3)cc2)CN(CC(=O)[O-])CC1.[68Ga+3] (stereo not drawn) [^68Ga-CA030]
Specific lysate (internalization) (C4-2 cells): 53.8 ± 5.4 %IA/10^6 cells
tumor-to-kidney ratio [1]: 0.33
SUV mean Bone metastasis (prostate cancer patients; first listed bone metastasis, 1 h p.i.): 27.2
SUV mean Bone metastasis (prostate cancer patients; first listed bone metastasis, 3 h p.i.): 37.7
SUV mean Blood pool, mediastinal (prostate cancer patients; 1 h p.i.): 5.6
SUV mean Colon (prostate cancer patients; 1 h p.i.): 4.9
SUV mean Gluteal muscle (prostate cancer patients; 1 h p.i.): 0.8
SUV mean Kidneys (prostate cancer patients; 1 h p.i.): 13.4
SUV mean Lacrimal gland (prostate cancer patients; 1 h p.i.): 7.1
SUV mean Liver (prostate cancer patients; 1 h p.i.): 5.8
SUV mean Nasal mucosa (prostate cancer patients; 1 h p.i.): 3.3
SUV mean Parotid gland (prostate cancer patients; 1 h p.i.): 6.1
SUV mean Proximal small intestine (prostate cancer patients; 1 h p.i.): 4.1
SUV mean Spleen (prostate cancer patients; 1 h p.i.): 7.2
SUV mean Sublingual gland (prostate cancer patients; 1 h p.i.): 4.1
SUV mean Submandibular gland (prostate cancer patients; 1 h p.i.): 8.7
SUV mean Blood pool, mediastinal (prostate cancer patients; 3 h p.i.): 4.5
SUV mean Colon (prostate cancer patients; 3 h p.i.): 4.7
SUV mean Gluteal muscle (prostate cancer patients; 3 h p.i.): 0.7
SUV mean Kidneys (prostate cancer patients; 3 h p.i.): 16.5
SUV mean Lacrimal gland (prostate cancer patients; 3 h p.i.): 9.0
SUV mean Liver (prostate cancer patients; 3 h p.i.): 5.9
SUV mean Nasal mucosa (prostate cancer patients; 3 h p.i.): 3.8
SUV mean Parotid gland (prostate cancer patients; 3 h p.i.): 6.7
SUV mean Proximal small intestine (prostate cancer patients; 3 h p.i.): 5.0
SUV mean Spleen (prostate cancer patients; 3 h p.i.): 6.1
SUV mean Sublingual gland (prostate cancer patients; 3 h p.i.): 4.9
SUV mean Submandibular gland (prostate cancer patients; 3 h p.i.): 11.3
SUV mean Bone metastasis (prostate cancer patients; second listed bone metastasis, 1 h p.i.): 30.9
SUV mean Bone metastasis (prostate cancer patients; second listed bone metastasis, 3 h p.i.): 32.6
SUV mean Bone metastasis (prostate cancer patients; third listed bone metastasis, 1 h p.i.): 31.0
SUV mean Bone metastasis (prostate cancer patients; third listed bone metastasis, 3 h p.i.): 33.1
Organ distribution Blood ([2]; 20 min): 4.33 ± 0.51 % ID/g
Organ distribution Brain ([2]; 20 min): 0.08 ± 0.01 % ID/g
Organ distribution Heart ([2]; 20 min): 1.29 ± 0.30 % ID/g
Organ distribution Kidneys ([2]; 20 min): 63.89 ± 5.72 % ID/g
Organ distribution Liver ([2]; 20 min): 1.04 ± 0.18 % ID/g
Organ distribution Lung ([2]; 20 min): 2.63 ± 0.89 % ID/g
Organ distribution Muscle ([2]; 20 min): 1.39 ± 1.30 % ID/g
Organ distribution Small intestine ([2]; 20 min): 1.00 ± 0.38 % ID/g
Organ distribution Spleen ([2]; 20 min): 8.37 ± 0.47 % ID/g
Organ distribution Tumor ([2]; 20 min): 5.17 ± 1.48 % ID/g
Organ distribution Blood ([2]; 1 h): 3.59 ± 1.52 % ID/g
Organ distribution Brain ([2]; 1 h): 0.08 ± 0.02 % ID/g
Organ distribution Heart ([2]; 1 h): 1.03 ± 0.36 % ID/g
Organ distribution Kidneys ([2]; 1 h): 46.39 ± 23.44 % ID/g
Organ distribution Liver ([2]; 1 h): 1.52 ± 0.61 % ID/g
Organ distribution Lung ([2]; 1 h): 2.74 ± 0.72 % ID/g
Organ distribution Muscle ([2]; 1 h): 0.63 ± 0.21 % ID/g
Organ distribution Small intestine ([2]; 1 h): 0.92 ± 0.37 % ID/g
Organ distribution Spleen ([2]; 1 h): 2.86 ± 1.86 % ID/g
Organ distribution Tumor ([2]; 1 h): 5.36 ± 2.21 % ID/g
Organ distribution Blood ([2]; 2 h): 1.42 ± 0.61 % ID/g
Organ distribution Brain ([2]; 2 h): 0.04 ± 0.02 % ID/g
Organ distribution Heart ([2]; 2 h): 0.40 ± 0.09 % ID/g
Organ distribution Kidneys ([2]; 2 h): 20.19 ± 7.92 % ID/g
Organ distribution Liver ([2]; 2 h): 0.81 ± 0.15 % ID/g
Organ distribution Lung ([2]; 2 h): 1.08 ± 0.42 % ID/g
Organ distribution Muscle ([2]; 2 h): 0.28 ± 0.03 % ID/g
Organ distribution Small intestine ([2]; 2 h): 0.75 ± 0.06 % ID/g
Organ distribution Spleen ([2]; 2 h): 1.39 ± 0.47 % ID/g
Organ distribution Tumor ([2]; 2 h): 4.31 ± 0.30 % ID/g
Organ distribution Blood ([2]; 4 h): 0.39 ± 0.14 % ID/g
Organ distribution Brain ([2]; 4 h): 0.01 ± 0.00 % ID/g
Organ distribution Heart ([2]; 4 h): 0.16 ± 0.05 % ID/g
Organ distribution Kidneys ([2]; 4 h): 6.17 ± 0.82 % ID/g
Organ distribution Liver ([2]; 4 h): 0.50 ± 0.14 % ID/g
Organ distribution Lung ([2]; 4 h): 0.34 ± 0.10 % ID/g
Organ distribution Muscle ([2]; 4 h): 0.17 ± 0.02 % ID/g
Organ distribution Small intestine ([2]; 4 h): 0.21 ± 0.09 % ID/g
Organ distribution Spleen ([2]; 4 h): 0.48 ± 0.09 % ID/g
Organ distribution Tumor ([2]; 4 h): 2.69 ± 0.88 % ID/g

O=C([O-])CN1CCN(CC(=O)[O-])CCN(C(CCC(=O)NCc2ccc(NC(=S)NCC3CCC(C(=O)NC(Cc4ccc5ccccc5c4)C(=O)NCCCCC(NC(=O)NC(CCC(=O)O)C(=O)O)C(=O)O)CC3)cc2)C(=O)O)CCN(CC(=O)[O-])CC1.[177Lu+3] (stereo not drawn) [^177Lu-CA029]
release of ^177Lu in human serum [3]: no release

O=C([O-])CN1CCN(CC(=O)[O-])CCN(CC(=O)O)C(Cc2ccc(NC(=S)NCC3CCC(C(=O)NC(Cc4ccc5ccccc5c4)C(=O)NCCCCC(NC(=O)NC(CCC(=O)O)C(=O)O)C(=O)O)CC3)cc2)CN(CC(=O)[O-])CC1.[177Lu+3] (stereo not drawn) [^177Lu-CA030]
release of ^177Lu in human serum [3]: no release
stability in human serum ([3]; over 72 h): stable
